{
  "source": "paper PMC12175978",
  "about": "“First-in-Human Serum Stability Studies of [^177Lu]Lu-AMTG: A Step Toward Improved GRPR-Targeted Radiopharmaceutical Therapy” (Journal of Nuclear Medicine, 2025)",
  "origin": "cited, not measured here",
  "note": "Like-named read-outs stand apart in the source and are kept apart here.",
  "data": [
    {"substance": "[^177Lu]Lu-DOTATATE", "values": [
      {"measurement": "in vivo serum stability in humans (in words)", "setting": "in vivo", "result": "very stable"}
    ]},
    {"substance": "[^177Lu]Lu-PSMA-617", "values": [
      {"measurement": "in vivo serum stability in humans (in words)", "setting": "human", "result": "very stable"}
    ]}
  ]
}
